Laboratory results: ChEMBL document CHEMBL1201862, “PubChem BioAssay data set” (2004)
Activity calls are given as the source filed them.

Experiments:
Cytochrome P450 3A4 = Cytochrome P450 3A4 (Homo sapiens, UniProt P08684);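 note: CYP3A4 tested as one member of a cytochrome P450 panel screen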
Cytochrome P450 2C19 = Cytochrome P450 2C19 (Homo sapiens, UniProt P33261); assay: Cytochrome panel assay with activity outcomes. Panel member name: p450-cyp2c19 Compounds with AC50 equal or less than 10 uM are considered active; format: functional; details: read-out: AC50
Chain of Cytochrome P450 2C19 (P33261 whole entry): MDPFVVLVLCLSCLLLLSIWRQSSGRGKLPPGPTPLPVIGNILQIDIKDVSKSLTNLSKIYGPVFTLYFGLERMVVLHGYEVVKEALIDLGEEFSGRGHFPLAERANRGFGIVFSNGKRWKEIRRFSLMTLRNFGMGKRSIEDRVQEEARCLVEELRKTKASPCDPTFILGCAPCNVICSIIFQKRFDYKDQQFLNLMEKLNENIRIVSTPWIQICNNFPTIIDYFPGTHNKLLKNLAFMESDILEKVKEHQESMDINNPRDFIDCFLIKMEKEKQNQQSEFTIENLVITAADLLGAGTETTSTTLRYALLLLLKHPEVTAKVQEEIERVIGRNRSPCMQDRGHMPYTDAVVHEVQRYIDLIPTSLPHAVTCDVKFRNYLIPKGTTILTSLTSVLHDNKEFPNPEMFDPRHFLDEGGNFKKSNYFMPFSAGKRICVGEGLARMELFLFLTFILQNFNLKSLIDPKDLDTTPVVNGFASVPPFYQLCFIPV

Cytochrome P450 1A2 = molecular target: T1, Cytochrome P450 1A2 (Homo sapiens, UniProt P05177);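 note: PubChem cytochrome P450 panel assay, CYP1A2 panel member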
T1 sequence (P05177 whole entry): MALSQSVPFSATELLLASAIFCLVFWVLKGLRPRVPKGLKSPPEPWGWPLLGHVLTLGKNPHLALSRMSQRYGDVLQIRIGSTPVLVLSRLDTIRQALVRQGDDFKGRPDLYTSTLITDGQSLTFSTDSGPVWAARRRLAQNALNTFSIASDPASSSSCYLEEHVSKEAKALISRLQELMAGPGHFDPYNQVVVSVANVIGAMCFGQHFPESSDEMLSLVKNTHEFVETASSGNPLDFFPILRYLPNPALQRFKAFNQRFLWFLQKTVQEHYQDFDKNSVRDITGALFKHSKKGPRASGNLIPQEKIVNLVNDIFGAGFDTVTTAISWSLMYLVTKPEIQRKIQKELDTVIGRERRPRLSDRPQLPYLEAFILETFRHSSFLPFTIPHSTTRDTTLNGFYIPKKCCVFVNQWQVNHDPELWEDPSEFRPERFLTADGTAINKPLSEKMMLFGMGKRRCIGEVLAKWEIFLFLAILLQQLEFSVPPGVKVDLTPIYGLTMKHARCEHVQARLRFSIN

[1] = molecular target: T2, Heat shock factor protein 1 (Mus musculus, UniProt P38532); assay: inhibition of MG132-induced HSE-luciferase signal, confirmation, cell-based, NIH3T3, luminescence, dose retest (AID 2382); format: functional;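 note: NIH3T3 fibroblasts with HSF1-driven luciferase reporter stressed by proteasome inhibitor MG132; luminescence from HSF1-driven luciferase expression after 8 hours of MG132 stress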
T2 sequence (P38532 whole entry): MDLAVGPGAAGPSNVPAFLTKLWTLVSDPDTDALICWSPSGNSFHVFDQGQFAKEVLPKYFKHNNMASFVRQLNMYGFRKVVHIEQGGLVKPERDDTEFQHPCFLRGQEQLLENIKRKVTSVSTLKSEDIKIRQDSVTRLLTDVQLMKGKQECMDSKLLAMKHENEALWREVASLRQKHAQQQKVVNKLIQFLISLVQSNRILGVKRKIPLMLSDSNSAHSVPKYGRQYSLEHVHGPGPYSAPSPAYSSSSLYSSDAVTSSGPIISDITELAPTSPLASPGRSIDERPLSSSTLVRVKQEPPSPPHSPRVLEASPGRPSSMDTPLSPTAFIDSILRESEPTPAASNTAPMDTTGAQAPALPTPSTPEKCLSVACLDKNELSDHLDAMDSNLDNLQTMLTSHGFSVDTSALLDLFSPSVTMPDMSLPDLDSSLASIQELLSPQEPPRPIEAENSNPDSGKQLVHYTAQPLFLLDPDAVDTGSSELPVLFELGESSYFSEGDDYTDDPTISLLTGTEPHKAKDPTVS

[2] = molecular target: T3, Corticotropin-releasing factor receptor 2/Corticotropin-releasing factor-binding protein (Homo sapiens, UniProt P24387+Q13324); assay: activators of CRF receptor 2 with binding protein – uHTS hits, confirmation (AID 602473); format: functional; details: read-out: EC50_Mean
T3 sequence (Q13324 whole entry): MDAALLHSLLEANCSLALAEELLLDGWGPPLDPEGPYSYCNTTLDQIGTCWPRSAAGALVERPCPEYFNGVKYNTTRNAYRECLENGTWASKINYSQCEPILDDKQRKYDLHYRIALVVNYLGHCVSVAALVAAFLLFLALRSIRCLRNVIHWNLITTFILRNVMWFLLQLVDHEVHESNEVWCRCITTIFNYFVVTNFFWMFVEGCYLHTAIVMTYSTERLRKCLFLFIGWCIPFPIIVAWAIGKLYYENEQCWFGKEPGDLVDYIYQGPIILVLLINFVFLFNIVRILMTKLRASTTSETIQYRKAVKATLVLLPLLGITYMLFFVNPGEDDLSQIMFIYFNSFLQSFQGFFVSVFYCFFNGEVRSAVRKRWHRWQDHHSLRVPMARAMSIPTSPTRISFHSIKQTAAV
T3 sequence (P24387 whole entry): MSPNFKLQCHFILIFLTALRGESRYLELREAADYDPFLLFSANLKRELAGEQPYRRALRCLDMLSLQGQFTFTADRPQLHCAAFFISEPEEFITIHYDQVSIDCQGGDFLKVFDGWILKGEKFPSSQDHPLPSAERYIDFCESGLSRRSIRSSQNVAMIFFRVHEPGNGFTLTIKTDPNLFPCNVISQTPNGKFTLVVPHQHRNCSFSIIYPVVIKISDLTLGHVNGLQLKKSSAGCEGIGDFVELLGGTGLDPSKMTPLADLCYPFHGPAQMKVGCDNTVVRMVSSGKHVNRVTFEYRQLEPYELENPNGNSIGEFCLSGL

[3] = molecular target: T2, Heat shock factor protein 1; assay: HSF1 potentiators in luciferase reporter cells, confirmation, cell-based, NIH3T3, luminescence, dose retest (AID 435004); format: functional;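 note: stress induced by proteasome inhibitor MG132 added 30 min after compound; luciferase reporter driven by HSF1 response element in NIH3T3 cells; actives raise luminescence as potentiators of the MG132 stress response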
[4] = system: Streptococcus sp. 'group A'; assay: growth inhibition of control SK(-) GAS strain, dose response, counter-screen for streptokinase expression inhibitor project, luminescence, kanamycin, BacTiterGlo, confirmation (AID 1900); format: functional, organism-based
Streptococcus = assay: Group A Streptococcus viability loss, dose response, counter-screen for streptokinase expression inhibitor project, luminescence, BacTiterGlo (AID 1915); format: functional, organism-based;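 note: potency for reduction of bacterial viability or growth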

Chain of Cytochrome P450 3A4 (P08684 whole entry): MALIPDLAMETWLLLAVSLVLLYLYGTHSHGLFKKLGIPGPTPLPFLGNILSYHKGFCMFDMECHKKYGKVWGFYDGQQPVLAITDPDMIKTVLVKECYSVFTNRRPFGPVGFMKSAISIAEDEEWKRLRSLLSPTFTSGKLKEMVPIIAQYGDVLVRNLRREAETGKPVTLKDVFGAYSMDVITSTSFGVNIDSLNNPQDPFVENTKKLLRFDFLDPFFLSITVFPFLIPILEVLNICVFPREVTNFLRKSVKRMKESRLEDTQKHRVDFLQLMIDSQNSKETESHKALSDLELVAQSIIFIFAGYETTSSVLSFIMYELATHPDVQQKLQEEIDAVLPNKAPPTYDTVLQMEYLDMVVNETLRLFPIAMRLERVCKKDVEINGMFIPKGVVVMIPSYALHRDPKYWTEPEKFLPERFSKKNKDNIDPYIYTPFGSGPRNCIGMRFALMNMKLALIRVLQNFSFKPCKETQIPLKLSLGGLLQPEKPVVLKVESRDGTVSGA

`COc1ccc(NC(=O)N2CC3(CCN(C(=O)c4ccc(OC)cc4)CC3)C2)cc1` was tested, and the AC50 (Cytochrome P450 3A4) was 25.1 µM (inconclusive).
For `Cc1c(NC(=O)NC(C)N2C(=O)C3C4C=CC(C4)C3C2=O)c(=O)n(-c2ccccc2)n1C` (stereo unspecified), the AC50 (Cytochrome P450 3A4) was 25.1 µM (inconclusive).
`O=C(c1cccc(F)c1)N1CCC2(CCCN(c3ccc(-c4ccccc4)cc3)C2)CC1` was tested, and the AC50 (Cytochrome P450 2C19) was 20 µM (inconclusive) and the AC50 (Cytochrome P450 3A4) was 12.6 µM (inconclusive).
With `CC(=O)c1cc(CC=C(C)C)c(O)cc1O` the AC50 (Cytochrome P450 3A4) was 1.41 µM (inconclusive).
With `O=C(Nc1cccn(Cc2c(Cl)cccc2Cl)c1=O)c1ccc(Cl)cc1Cl` the AC50 (Cytochrome P450 1A2) was 2.82 µM (inconclusive) and the AC50 (Cytochrome P450 3A4) was 14.1 µM (inconclusive).
In the case of `COc1ccc(C(NC(=O)c2ccc(O)nc2)C(=O)Nc2ccc(C(C)C)cc2)cc1` (stereo unspecified), the EC50 [1] is reported as > 195 µM (not active) and the EC50 [2] is reported as > 53 µM (inactive).
For `COC(=O)c1ccc(OC(=O)CCN2C(=O)C3CCCCC3C2=O)cc1` (stereo unspecified), the EC50 [3] was > 260 µM (inactive).
`COc1ccc(-c2nc3cnc(OC)nc3n(-c3ccc(OC)cc3)c2=O)cc1` was tested, and the AC50 (Cytochrome P450 1A2) was 0.316 µM (inconclusive) and the AC50 (Cytochrome P450 3A4) was 15.8 µM (inconclusive).
For `COc1cc(OC)c(C2C(C(=O)O)c3ccccc3C(=O)N2C)cc1OC` (stereo unspecified), the AC50 (Cytochrome P450 1A2) was 31.6 µM (inconclusive) and the AC50 (Cytochrome P450 3A4) was 0.355 µM (inconclusive).
For `Nc1c2c(=O)oc(-c3ccccc3)cc2nn1-c1ccccc1`, the AC50 (Cytochrome P450 3A4) was 25.1 µM (inconclusive).
In the case of `O=C(NCc1cccc(Cl)c1)c1cccc(S(=O)(=O)N2CCCC2)c1`, the EC50 [2] is reported as > 53 µM (inactive).
`Cc1nc2c(c(=O)c3ccccc3n2C)c(=O)n1C1CCCCCC1` was tested, and the EC50 [2] was 9.6 µM (active).
For `Cc1cccc(-n2nnc3cnn(C)c3c2=O)c1`, the AC50 (Cytochrome P450 1A2) was 12.6 µM (inconclusive) and the AC50 (Cytochrome P450 3A4) was 31.6 µM (inconclusive).
In the case of `Nn1c(SCC(=O)N2CCOCC2)nnc1C1CC1`, the EC50 [3] is reported as > 260 µM (inactive).
`O=C1[C@H]2[C@H]3[C@H](O)[C@H](O)C/C(=N/OC[C@@H](O)COCc4ccco4)[C@@H]3CC[C@@H]2C(=O)N1C1CCCCC1` was tested, and the AC50 (Cytochrome P450 3A4) was 5.01 µM (inconclusive).
`Cn1ncc2c(Nc3ccc(Br)cc3)nc(Nc3ccc(Br)cc3)nc21` was tested, and the EC50 [4] was 1.01 µM (active) and the EC50 (Streptococcus) was 2.38 µM (active).
With `CCOC(=O)/C(=C\c1ccc(N2CCC(c3ccccc3)=N2)cc1)C(C)=O` the EC50 [2] was 7.05 µM (active).
For `COc1ccc(-c2nnc3ccc(SCC(=O)NCC4CCCO4)nn23)cc1` (stereo unspecified), the EC50 [3] was > 260 µM (inactive).
With `Cc1cccn2c(=O)c3cc(C#N)/c(=N\C(=O)c4cccnc4)n(CC4CCCO4)c3nc12` (stereo unspecified) the EC50 [2] was > 53 µM (inactive).
In the case of `O=C(NC(C(=O)N/N=C/c1cccnc1)c1nnc(O)c2ccccc12)c1ccccc1` (stereo unspecified), the EC50 [2] is reported as 7.94 µM (active).
For `COc1ccc(NC(=O)c2ccc(-c3ccc(-c4noc(C)n4)cc3C)cc2)cc1OCCN(C)C`, the AC50 (Cytochrome P450 1A2) was 39.8 µM (inconclusive) and the AC50 (Cytochrome P450 3A4) was 15.8 µM (inconclusive).
`O=c1[nH]c2ccccc2c2cn(-c3ccccc3)nc12` was tested, and the EC50 [3] was 126 µM (active).
`Cc1nn(-c2ccc(Cl)cc2)c(O)c1/C=N/n1c(C)nc2ccccc2c1=O` was tested, and the EC50 [4] was 3.48 µM (active) and the EC50 (Streptococcus) was 7.22 µM (active).
For `CC/C(=N/Cc1ccc(Cl)c(Cl)c1)c1nc(-c2ccco2)oc1O`, the EC50 [3] was 20 µM (active).
With `CC(C)N1C(=O)/C(=C\c2c[nH]c3ccccc23)S/C1=N\c1ccccc1` the AC50 (Cytochrome P450 1A2) was 4.47 µM (inconclusive), the AC50 (Cytochrome P450 2C19) was 2 µM (inconclusive) and the AC50 (Cytochrome P450 3A4) was 22.4 µM (inconclusive).
